Assay results as given in US12419305B2, “Antimicrobial compositions” (Firmenich SA, priority 2018, dated 2025).

Key:
[1] = test system: E. coli ATCC 10536; experiment: BCT test (bacterial contact time), 45 s, log reduction / effect fraction; CI by Compusyn; format: cell-based, Escherichia coli; details: 45 s, in 20% EtOH
Procedure: (§1) E. coli, S. aureus, P. aeruginosa, and S. enterica: Separate suspensions of the E. coli ATCC 10536 strain, S. aureus ATCC 6538 strain, Pseudomonas aeruginosa ATCC 15442 strain, and the Salmonella enterica ATCC 10708 strain were prepared as follows: Stock cultures (stored at −80° C.) were thawed and sub-cultured onto Tryptic Soy Agar (TSA) agar plate media, and incubated at 37° C. for 24 h to obtain single colonies. Single colonies of the primary cultures were streaked onto TSA plates and incubated at 37° for 24 h to generate secondary cultures. Single colonies of secondary cultures picked and used to inoculate into 50 mL of TSB broth. The inoculated TSB broth was incubated at 37° C. at 180 rpm for 18 h. Aliquots (0.5 ml) of the 18 h culture were inoculated into 50 ml of fresh TSB broth, and incubated at 37° C. at 180 rpm for 2-3 hours. When the OD600 nm value of the broth reached 1-2, cells were harvested by centrifugation at 5000 rpm for 10 min, and then resuspended in fresh TSB broth at a concentration of 1-5×10^8 CFU/mL. These suspensions were used as the bacterial suspensions for the BCT test.
(§2) BCT Test: Test compositions at a range of concentrations (either combinations of more than one perfume ingredient, and comparative compositions comprising the single perfume ingredients) were prepared in ethanol. Five replicates of each test composition were added into 96-well microtiter plates (120 μl per well), with row B containing control compositions containing the ethanol solution alone. 120 μl of bacterial cell suspensions at a concentration of approximately 1×10^8 bacteria per mL (as prepared above) were added to each well of the microtiter plate. The bacterial suspensions were incubated with the test solutions for 45, 60, or 120 seconds. Following the incubation of the bacterial suspensions with the test solutions, serial dilutions of the bacterial suspensions were generated (three serial 1:10 dilutions, followed by 17 serial 1:2 dilutions), in multiwell microtiter plates.
(§3) Each plate was sealed and incubated at 37° C. under agitation (180 rpm). After incubation, the turbidity of the wells (OD600 nm) was determined using a Tecan microplate reader. Turbid wells were regarded as positive growth, due to the presence of viable cells. The total number of viable cells (log CFU) for each sample was calculated. And the log reduction for each test composition at the final concentration (dose) was calculated against the control sample of the ethanol solution.
(§4) Determination of Synergy via the Combination Index (CI): The CI was calculated using Compusyn software (ComboSyn, Inc., as created by Dr. Dorothy Chou in 2005), according to the manufacturer's instructions. The concentration of each test composition (combinations of more than one perfume ingredient, and comparative compositions comprising the single perfume ingredients used to generate the combination) and their corresponding effect fraction was entered, and the corresponding CI calculated.
(§5) When the calculated CI values were less than 0.9, the combination of perfume ingredients was regarded as having synergistic effect. When the calculated CI was between 1.0 a 0.9, the combination of perfume ingredients was regarded as having an additive effect. When the calculated CI was greater than 1.0, the combination of perfume ingredients was regarded as having an antagonistic effect.

[2] = test system: S. aureus ATCC 6538; experiment: BCT test (bacterial contact time), 60 s, log reduction / effect fraction; CI by Compusyn; format: cell-based, Staphylococcus aureus; details: Staphylococcus aureus, ATCC6538, 1 min, 60 s, in 25% EtOH
Procedure: as §1, §2, §3, §4, §5

[3] = test system: Pseudomonas aeruginosa ATCC 15442; experiment: as above; format: cell-based; details: BCT 60 s, in 25% EtOH
Procedure: as §1, §2, §3, §4, §5

Work on `O=Cc1ccc2c(c1)OCO2` [Heliotropine, 1,3-benzodioxole-5-carbaldehyde] yielded a log reduction at 0.45 % strength ([1]; Escherichia coli, ATCC10536, 45 s, dose 0.450 % w/v) of 0.1, a log reduction at 0.55 % strength ([1]; Escherichia coli, ATCC10536, 45 s, dose 0.550 % w/v) of 5.3 and a log reduction at 0.6 % strength ([1]; Escherichia coli, ATCC10536, 45 s, dose 0.600 % w/v) of 7.3. For the same compound, the Log reduction ([1]; dose 0.450 % w/v) was 0.1, the log reduction at 0.5 % strength ([2]; dose 0.500 % w/v) was 0.7 and the log reduction at 0.6 % strength ([2]; dose 0.600 % w/v) was 2.7. For the same compound, the log reduction at 0.7 % strength ([2]; dose 0.700 % w/v) was 6.1, the log reduction at 0.75 % strength ([2]; dose 0.750 % w/v) was 7.1 and the log reduction at 1 % strength ([2]; dose 1.000 % w/v) was 7.1. For the same compound, the Log reduction ([3]; Dose 0.2 % w/v) was 0.00, the log reduction at 0.2 % strength ([3]; Pseudomonas aeruginosa, ATCC15442, 1 min, Dose 0.2 % w/v) was 0 and the log reduction at 0.3 % strength ([3]; Pseudomonas aeruginosa, ATCC15442, 1 min, Dose 0.3 % w/v) was 0.6. It also gave a log reduction at 0.4 % strength ([3]; Pseudomonas aeruginosa, ATCC15442, 1 min, Dose 0.4 % w/v) of 3.4, a log reduction at 0.45 % strength ([3]; Pseudomonas aeruginosa, ATCC15442, 1 min, Dose 0.45 % w/v) of 4.1 and a log reduction at 0.55 % strength ([3]; Pseudomonas aeruginosa, ATCC15442, 1 min, Dose 0.55 % w/v) of 7.6.
